Test results as given in PubChem BioAssay (NCI).
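GI50 marks 50% less growth. At the TGI there is no net growth.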

Assays:
Assay in all cases: growth of human tumour cells (NCI), 384-well format; in the data active = GI50 below about 0.43 µM; inactive = the rest
[1] = system: LOX IMVI melanoma
[2] = system: T-47D breast
[3] = system: SW-620 colon
[4] = system: UO-31 renal
[5] = system: EKVX NSCLC
[6] = system: SN12C renal
[7] = system: UACC-62 melanoma
[8] = system: MDA-MB-435 melanoma
[9] = system: SF-268 CNS
[10] = system: OVCAR-4 ovarian
[11] = system: RPMI-8226 leukemia
[12] = system: UACC-257 melanoma
[13] = system: PC-3 prostate
[14] = system: SNB-19 CNS
[15] = system: SR leukemia
[16] = system: SNB-75 CNS
[17] = system: MALME-3M melanoma
[18] = system: A498 renal
[19] = system: HOP-62 NSCLC
[20] = system: SK-MEL-5 melanoma
[21] = system: HOP-92 NSCLC
[22] = system: COLO 205 colon
[23] = system: ACHN renal
[24] = system: BT-549 breast
[25] = system: SK-OV-3 ovarian
[26] = system: TK-10 renal
[27] = system: HL-60(TB) leukemia
[28] = system: MOLT-4 leukemia
[29] = system: NCI-H460 NSCLC
[30] = system: 786-0 renal
[31] = system: HCT-15 colon
[32] = system: NCI/ADR-RES ovarian
[33] = system: HCC-2998 colon
[34] = system: MCF7 breast
[35] = system: CAKI-1 renal
[36] = system: DU-145 prostate
[37] = system: M14 melanoma
[38] = system: NCI-H322M lung
[39] = system: SK-MEL-28 melanoma
[40] = system: OVCAR-3 ovarian
[41] = system: U251 glioblastoma
[42] = system: CCRF-CEM leukemia
[43] = system: SF-539 CNS
[44] = system: K-562 leukemia
[45] = system: HS 578T breast
[46] = system: A549 NSCLC
[47] = system: SF-295 CNS
[48] = system: NCI-H226 lung
[49] = system: RXF 393 renal
[50] = system: NCI-H23 lung
[51] = system: IGROV1 ovarian
[52] = system: MDA-MB-231 breast
[53] = system: NCI-H522 lung
[54] = system: OVCAR-8 ovarian
[55] = system: HT29 colon
[56] = system: MDA-MB-468 breast
[57] = system: OVCAR-5 ovarian
[58] = system: KM12 colon

O=C(O)CCC1CCC(c2cc(F)ccc2F)(S(=O)(=O)c2ccc(Cl)cc2)CC1 (stereo unspecified)
> 100 µM: TGI [1] | TGI [2] | TGI [3] | TGI [4] | TGI [5] | TGI [6] | TGI [7] | TGI [8] | TGI [9] | TGI [10] | TGI [11] | TGI [12] | TGI [13] | TGI [14] | TGI [15] | TGI [16] | TGI [17] | TGI [18] | TGI [19] | TGI [20] | TGI [21] | TGI [22] | TGI [23] | TGI [24] | TGI [25] | TGI [26] | TGI [27] | TGI [28] | TGI [29] | TGI [30] | TGI [31] | TGI [32] | TGI [33] | TGI [34] | TGI [35] | TGI [36] | TGI [37] | TGI [38] | TGI [39] | TGI [40] | TGI [41] | TGI [42] | TGI [43] | TGI [44] | TGI [45] | TGI [46] | TGI [47] | TGI [48] | TGI [49] | TGI [50] | TGI [51] | TGI [52] | TGI [53] | TGI [54] | TGI [55] | TGI [57] | TGI [58]
80.4 µM: TGI [56]
inactive: GI50 [1] > 100 µM | GI50 [2] 99.6 µM | GI50 [3] > 100 µM | GI50 [4] > 100 µM | GI50 [5] > 100 µM | GI50 [6] > 100 µM | GI50 [7] > 100 µM | GI50 [8] 71.9 µM | GI50 [9] > 100 µM | GI50 [10] 78.8 µM | GI50 [11] > 100 µM | GI50 [12] > 100 µM | GI50 [13] > 100 µM | GI50 [14] > 100 µM | GI50 [15] 24.8 µM | GI50 [16] > 100 µM | GI50 [17] 62 µM | GI50 [18] > 100 µM | GI50 [19] > 100 µM | GI50 [20] > 100 µM | GI50 [21] > 100 µM | GI50 [22] > 100 µM | GI50 [23] > 100 µM | GI50 [24] > 100 µM | GI50 [25] > 100 µM | GI50 [26] > 100 µM | GI50 [27] > 100 µM | GI50 [28] 65 µM | GI50 [29] > 100 µM | GI50 [30] > 100 µM | GI50 [31] > 100 µM | GI50 [32] > 100 µM | GI50 [33] > 100 µM | GI50 [34] > 100 µM | GI50 [35] > 100 µM | GI50 [36] > 100 µM | GI50 [37] > 100 µM | GI50 [38] > 100 µM | GI50 [39] > 100 µM | GI50 [40] > 100 µM | GI50 [41] > 100 µM | GI50 [42] 75.8 µM | GI50 [43] > 100 µM | GI50 [44] > 100 µM | GI50 [45] > 100 µM | GI50 [46] > 100 µM | GI50 [47] > 100 µM | GI50 [48] > 100 µM | GI50 [49] > 100 µM | GI50 [50] > 100 µM | GI50 [51] > 100 µM | GI50 [52] > 100 µM | GI50 [53] > 100 µM | GI50 [54] > 100 µM | GI50 [55] > 100 µM | GI50 [56] 8.1 µM | GI50 [57] > 100 µM | GI50 [58] > 100 µM
